This is an account of results in patent US20230373989A1, “N-PHENYLAMINOCARBONYL PYRIDINO-, PYRIMIDINO AND BENZO-TROPANES AS MODULATORS OF GPR65” (PATHIOS THERAPEUTICS LIMITED, priority 2020, published 2023).

pIC50: −log10 of the molar value.

The pIC50 is the negative decadic logarithm of the IC50, by convention in mol/L.

T1 sequence (Q8IYL9 whole entry): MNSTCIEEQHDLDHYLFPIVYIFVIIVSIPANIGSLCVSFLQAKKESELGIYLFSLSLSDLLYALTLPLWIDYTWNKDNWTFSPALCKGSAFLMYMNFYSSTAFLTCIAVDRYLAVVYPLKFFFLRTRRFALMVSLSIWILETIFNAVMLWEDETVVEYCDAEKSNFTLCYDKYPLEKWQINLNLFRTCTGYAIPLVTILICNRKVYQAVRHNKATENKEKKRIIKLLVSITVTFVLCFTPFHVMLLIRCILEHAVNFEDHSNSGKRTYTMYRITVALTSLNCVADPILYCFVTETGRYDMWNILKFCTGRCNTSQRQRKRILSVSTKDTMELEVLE

The first experiment has as its target T1, human recombinant GPR65 (Homo sapiens, UniProt Q8IYL9).
T1 construct: host or cells: 1321N1 human astrocytoma cells (1321N1-hrGPR65)
Description: Human GPR65 cAMP HTRF antagonist assay. It is filed as cell-based.
Settings: not given
An outline of the steps:
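1321N1 astrocytoma cells stably expressing GPR65 were preincubated with compound for 30 min at room temperature in KRH pH 7.6 with 1 mM IBMX and 200 μM EDTA. They were then stimulated at assay pH 7.2 for 30 min, with controls at pH 7.9. cAMP was read by HTRF (665/620 nm), normalised to controls and fitted by 4-parameter logistic to give IC50.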
Background: Time-resolved FRET reads energy transfer from a long-lived donor to a nearby acceptor.
`O=C(Nc1ccc(C(F)(F)F)c(Cl)c1)N1[C@H]2CC[C@@H]1c1cncnc1C2` [Compound 38, (5R,8S)-N-(3-Chloro-4-(trifluoromethyl)phenyl)-6,7,8,9-tetrahydro-5H-5,8-epiminocyclohepta[d]pyrimidine-10-carboxamide]: the pIC50 is > 6.30.

Take `O=C(Nc1ccc(Cl)c(C(F)(F)F)c1)N1[C@H]2CC[C@@H]1c1cncnc1C2` [Compound 42, (5R,8S)-N-(4-Chloro-3-(trifluoromethyl)phenyl)-6,7,8,9-tetrahydro-5H-5,8-epiminocyclohepta[d]pyrimidine-10-carboxamide]: the pIC50 was > 6.30.

Turning to `O=C(Nc1ccc(C(F)(F)F)c(Cl)c1)N1[C@H]2CC[C@@H]1c1c[nH]c(=O)nc1C2` [Compound 43, (5R,8S)-N-(3-Chloro-4-(trifluoromethyl)phenyl)-2-oxo-3,5,6,7,8,9-hexahydro-2H-5,8-epiminocyclohepta[d]pyrimidine-10-carboxamide], the pIC50 was > 6.30.

Regarding `O=C(Nc1ccc(Cl)c(Cl)c1)N1[C@H]2CC[C@@H]1c1cncnc1C2` [Compound 52, (5R,8S)-N-(3,4-Dichlorophenyl)-6,7,8,9-tetrahydro-5H-5,8-epiminocyclohepta[d]pyrimidine-10-carboxamide], the pIC50 is > 6.30.

With `O=C(Nc1ccc(Cl)c(Cl)c1)N1[C@H]2CC[C@@H]1c1ccnc(F)c1C2` [Compound 78, (5R,8S)-N-(3,4-Dichlorophenyl)-1-fluoro-6,7,8,9-tetrahydro-5H-5,8-epiminocyclohepta[c]pyridine-10-carboxamide], the pIC50 was > 6.30.

For `O=C(Nc1cc(Cl)c(Cl)cc1F)N1[C@H]2CC[C@@H]1c1ccnc(F)c1C2` [Compound 79, (5R,8S)-N-(4,5-Dichlroo-2-fluorophenyl)-1-fluoro-6,7,8,9-tetrahydro-5H-5,8-epiminocyclohepta[c]pyridine-10-carboxamide], the pIC50 is > 6.30.

Consider `O=C(Nc1ccc(C(F)(F)F)c(Cl)c1)N1[C@H]2CC[C@@H]1c1ccnc(F)c1C2` [Compound 85, (5R,8S)-N-(3-Chloro-4-(trifluoromethyl)phenyl)-1-fluoro-6,7,8,9-tetrahydro-5H-5,8-epiminocyclohepta[c]pyridine-10-carboxamide], for which the pIC50 is > 6.30.

Take `N#Cc1cc(Cl)c(Cl)cc1NC(=O)N1[C@H]2CC[C@@H]1c1c[nH]c(=O)cc1C2` [Compound 88, (6S,9R)-N-(4,5-Dichloro-2-cyanophenyl)-3-oxo-3,5,6,7,8,9-hexahydro-2H-6,9-epiminocyclohepta[c]pyridine-10-carboxamide]: the pIC50 was > 6.30.

`O=C(Nc1ccc(Cl)c(Cl)c1)N1[C@H]2CC[C@@H]1c1cnc(F)cc1C2` [Compound 91, (6S,9R)-N-(3,4-Dichlorophenyl)-3-fluoro-6,7,8,9-tetrahydro-5H-6.9-epiminocyclohepta[c]pyridine-10-carboxamide]: the pIC50 was > 6.30.

`O=C(Nc1ccc(Cl)c(Cl)c1)N1[C@H]2CC[C@@H]1c1cc[n+]([O-])cc1C2` [Compound 92]: the pIC50 was > 6.30.

In the case of `O=C(Nc1cc(Cl)c(C(F)(F)F)cc1F)N1[C@H]2CC[C@@H]1c1c[nH]c(=O)cc1C2` [Compound 93, (6S,9R)-N-(5-Chloro-2-fluoro-4-(trifluoromethyl)phenyl)-3-oxo-3,5,6,7,8,9-hexahydro-2H-6,9-epiminocyclohepta[c]pyridine-10-carboxamide], the pIC50 is > 6.30.

For `O=C(Nc1cc(Cl)c(Cl)cc1F)N1[C@H]2CC[C@@H]1c1c[nH]c(=O)cc1C2` [Compound 94, (6S,9R)-N-(4,5-Dichloro-2-fluorophenyl)-3-oxo-3,5,6,7,8,9-hexahydro-2H-6,9-epiminocyclohepta[c]pyridine-10-carboxamide], the pIC50 was > 6.30.

As for `N#Cc1cc(Cl)c(Cl)cc1NC(=O)N1[C@H]2CC[C@@H]1c1ccnc(F)c1C2` [Compound 98, (5R,8S)-N-(4,5-Dichloro-2-cyanophenyl)-1-fluoro-6,7,8,9-tetrahydro-5H-5,8-epiminocyclohepta[c]pyridine-10-carboxamide], the pIC50 was > 6.30.

Regarding `O=C(Nc1cc(Cl)c(C(F)(F)F)cc1F)N1[C@H]2CC[C@@H]1c1ccnc(F)c1C2` [Compound 101, (5R,8S)-N-(5-Chloro-2-fluoro-4-(trifluoromethyl)phenyl)-1-fluoro-6,7,8,9-tetrahydro-5H-5.8-epiminocyclohepta[c]pyridine-10-carboxamide], the pIC50 was > 6.30.

Take `O=C(Nc1ccc(Cl)c(Cl)c1)N1[C@H]2CC[C@@H]1c1c[nH]c(=O)cc1C2` [Compound 103, (6S,9R)-N-(3,4-Dichlorophenyl)-3-oxo-3,5,6,7,8,9-hexahydro-2H-6,9-epiminocyclohepta[c]pyridine-10-carboxamide]: the pIC50 was > 6.30.

For `O=C(Nc1ccc(Cl)c(Cl)c1)N1[C@H]2CC[C@@H]1c1c[nH]c(=O)nc1C2` [Compound 106, (5R,8S)-N-(3,4-Dichlorophenyl)-2-oxo-3,5,6,7,8,9-hexahydro-2H-5,8-epiminocyclohepta[d]pyrimidine-10-carboxamide], the pIC50 was > 6.30.

Consider `O=C(Nc1ccc(Cl)c(Cl)c1)N1[C@H]2CC[C@@H]1c1ccncc1C2` [Compound 108, (5R,8S)-N-(3,4-Dichlorophenyl)-6,7,8,9-tetrahydro-5H-5,8-epiminocyclohepta[c]pyridine-10-carboxamide], for which the pIC50 is > 6.30.

Consider `Cc1cc(Cl)c(Cl)cc1NC(=O)N1[C@H]2CC[C@@H]1c1ccnc(F)c1C2` [Compound 117, (5R,8S)-N-(4,5-Dichloro-2-methylphenyl)-1-fluoro-6,7,8,9-tetrahydro-5H-5,8-epiminocyclohepta[c]pyridine-10-carboxamide], for which the negative-log IC50 (pIC50) is > 6.30.

Regarding `O=C(Nc1cc(C(F)(F)F)ccc1F)N1[C@H]2CC[C@@H]1c1ccnc(F)c1C2` [Compound 119, (5R,8S)-1-Fluoro-N-(2-fluoro-5-(trifluoromethyl)phenyl)-6,7,8,9-tetrahydro-5H-5,8-epiminocyclohepta[c]pyridine-10-carboxamide], the negative-log IC50 (pIC50) was > 6.30.

As to `O=C(Nc1ccc(C(F)(F)F)cc1F)N1[C@H]2CC[C@@H]1c1ccnc(F)c1C2` [Compound 120, (5R,8S)-1-Fluoro-N-(2-fluoro-4-(trifluoromethyl)phenyl)-6,7,8,9-tetrahydro-5H-5,8-epiminocyclohepta[c]pyridine-10-carboxamide], the negative-log IC50 (pIC50) was > 6.30.

The experiment is the same for the next values; noted with them: 1321N1-hrGPR65 cells, assay pH 7.2, cAMP HTRF; read-out: hGPR65 IC50 (activity class).
Regarding `O=C(Nc1ccc(C(F)(F)F)c(Cl)c1)N1[C@@H]2CC[C@H]1c1cncnc1C2` [Compound 39, (5S,8R)-N-(3-Chloro-4-(trifluoromethyl)phenyl)-6,7,8,9-tetrahydro-5H-5,8-epiminocyclohepta[d]pyrimidine-10-carboxamide], the pIC50 was < 5.30.

`O=C(Nc1ccc(C(F)(F)F)c(Cl)c1)N1[C@@H]2CC[C@H]1c1c[nH]c(=O)nc1C2` [Compound 44, (5S,8R)-N-(3-Chloro-4-(trifluoromethyl)phenyl)-2-oxo-3,5,6,7,8,9-hexahydro-2H-5,8-epiminocyclohepta[d]pyrimidine-10-carboxamide]: the pIC50 was < 5.30.

For the molecule `O=C(Nc1ccc(Cl)c(Cl)c1)N1[C@@H]2CC[C@H]1c1cncnc1C2` [Compound 53, (5S,8R)-N-(3,4-Dichlorophenyl)-6,7,8,9-tetrahydro-5H-5,8-epiminocyclohepta[d]pyrimidine-10-carboxamide], the pIC50 is < 5.30.

With `COc1cc2c(cn1)[C@H]1CC[C@@H](C2)N1C(=O)Nc1ccc(Cl)c(Cl)c1` [Compound 86, (6S,9R)-N-(3,4-Dichlorophenyl)-3-methoxy-6,7,8,9-tetrahydro-5H-6,9-epiminocyclohepta[c]pyridine-10-carboxamide], the pIC50 is < 5.30.

Consider `O=C(Nc1ccc(Cl)c(Cl)c1)N1[C@@H]2CC[C@H]1c1c[nH]c(=O)nc1C2` [Compound 105, (5S,8R)-N-(3,4-Dichlorophenyl)-2-oxo-3,5,6,7,8,9-hexahydro-2H-5,8-epiminocyclohepta[d]pyrimidine-10-carboxamide], for which the pIC50 is < 5.30.

For the molecule `O=C(Nc1ccc(Cl)c(Cl)c1)N1[C@@H]2CC[C@H]1c1ccncc1C2` [Compound 107, (5S,8R)-N-(3,4-Dichlorophenyl)-6,7,8,9-tetrahydro-5H-5,8-epiminocyclohepta[c]pyridine-10-carboxamide], the negative logarithm of the IC50 (pIC50) was < 5.30.

With `O=C(Nc1ccc(Cl)c(Cl)c1)N1[C@@H]2CC[C@H]1c1ccnc(F)c1C2` [Compound 110, (5S,8R)-N-(3,4-Dichlorophenyl)-1-fluoro-6,7,8,9-tetrahydro-5H-5,8-epiminocyclohepta[c]pyridine-10-carboxamide], the pIC50 was < 5.30.

Regarding `O=C(Nc1ccc(Cl)c(Cl)c1)N1[C@H]2CC[C@@H]1c1cnccc1C2` [Compound 111, (6S,9R)-N-(3,4-Dichlorophenyl)-6,7,8,9-tetrahydro-5H-6,9-epiminocycloheptan[c]pyridine-10-carboxamide], the pIC50 was 5.30 to 6.30.

`O=C(Nc1ccc(Cl)c(Cl)c1)N1[C@@H]2CC[C@H]1c1cnccc1C2` [Compound 112, (6R,9S)-N-(3,4-Dichlorophenyl)-6,7,8,9-tetrahydro-5H-6,9-epiminocyclohepta[c]pyridine-10-carboxamide]: the negative logarithm of the IC50 (pIC50) is < 5.30.

For the molecule `O=C(Nc1ccc(Cl)c(Cl)c1)N1[C@@H]2CC[C@H]1[C@H](F)c1ncncc12` [Compound 115, (5R,8S,9S)-N-(3,4-Dichlorophenyl)-9-fluoro-6,7,8,9-tetrahydro-5H-5,8-epiminocyclohepta[d]pyrimidine-10-carboxamide], the pIC50 was 5.30 to 6.30.

For the molecule `COc1cc(Cl)c(Cl)cc1NC(=O)N1[C@H]2CC[C@@H]1c1ccnc(F)c1C2` [Compound 118, (5R,8S)—N-(4,5-dichloro-2-methoxyphenyl)-1-fluoro-6,7,8,9-tetrahydro-5H-5,8-epiminocyclohepta[c]pyridine-10-carboxamide], the pIC50 is 5.30 to 6.30.
